Source: patent US3987157A, “Technetium 99-M labeled radio-diagnostic agents employing stannous tartrate and method of preparation” (Union Carbide Corporation, priority 1974, dated 1976)

Legend:
[1] = Stability of stannous compounds to air oxidation, 2.5 hours (Table XI); format: physicochemical; settings: 40 ml saline and 1 ml 1N HCl
Description: Four salts of stannous compounds were each dissolved in a solution of 40 ml of saline and 1 ml of 1N HCl which was purged with nitrogen. The stannous concentration was measured and then the solution was subjected to oxidation conditions by bubbling air through the solution for 2.5 hours. The stannous concentration was again measured.

[2] = Stability of various stannous compounds to air oxidation, one hour (Table XII); format: physicochemical; settings: for Stannous Concentration Before Aeration: 98 ml saline containing 2 ml 1N HCl; for Stannous Concentration After Aeration / % Not Oxidized tin: air bubbled for one hour; for % Not Oxidized tin: 60 min
Description: Six salts of stannous compounds were each dissolved in 98 ml of saline containing 2 ml 1N HCl. The solutions were analyzed in order to measure the stannous ion concentration and then were subjected to oxidation conditions by bubbling air through the solutions for one hour. The solutions were analyzed again. […]

[Cl][Sn][Cl] [Stannous Chloride, stannous chloride, reference compound]
Stannous Concentration Before Aeration [1]: 9.3 mg/mL | Stannous Concentration Before Aeration [2]: 0.138 mg/mL | Stannous Concentration After Aeration [2]: 0.085 mg/mL | % Not Oxidized tin [2]: 61.6%

O=C([O-])[C@H](O)[C@@H](O)C(=O)[O-].[Sn+2] [Stannous Tartrate, stannous tartrate]
Stannous Concentration Before Aeration [1]: 18.0 mg/mL | Stannous Concentration Before Aeration [2]: 0.247 mg/mL | Stannous Concentration After Aeration [2]: 0.213 mg/mL | % Not Oxidized tin [2]: 86.2% | Stability to air oxidation (in words) ([2]; one hour air): more stable than stannous chloride with tartrate or citrate ion present
